Test results taken from patent US20250376497A1, “ARTIFICIAL PROTEIN AND USES THEREOF” (priority 2022, published 2025).
Several values for one entry are separate records, joined by “and”; a condition that tells them apart may be missing. Identical values can stand only once. Entries after “also recorded” stand apart in the source; their conditions may differ. Bridge positions count the residues as written; N and C are the ends. Ends that are not written are not given here.

Experiments:
OR1 [1] = molecular target: T1, OR1 (Homo sapiens, UniProt O43613); set-up: host or cells: HEK-293T; conditions: Lang et al., 2004; cited from earlier work
T1 sequence (O43613 1-425): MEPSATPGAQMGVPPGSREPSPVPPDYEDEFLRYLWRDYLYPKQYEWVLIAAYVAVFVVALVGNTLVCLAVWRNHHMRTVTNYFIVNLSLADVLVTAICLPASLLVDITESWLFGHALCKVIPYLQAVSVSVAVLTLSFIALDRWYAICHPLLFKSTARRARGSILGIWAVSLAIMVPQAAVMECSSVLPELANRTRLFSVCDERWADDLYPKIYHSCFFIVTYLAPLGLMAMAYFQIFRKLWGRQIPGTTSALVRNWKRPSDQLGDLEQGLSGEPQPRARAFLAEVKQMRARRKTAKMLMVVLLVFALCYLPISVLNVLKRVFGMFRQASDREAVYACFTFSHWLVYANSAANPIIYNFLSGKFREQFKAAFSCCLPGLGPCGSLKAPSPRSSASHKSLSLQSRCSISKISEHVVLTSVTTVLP

OR2 [2] = molecular target: T2, OR2 (Homo sapiens, UniProt O43614); set-up: host or cells: HEK-293T; conditions: Lang et al., 2004; cited from earlier work
T2 sequence (O43614 1-444): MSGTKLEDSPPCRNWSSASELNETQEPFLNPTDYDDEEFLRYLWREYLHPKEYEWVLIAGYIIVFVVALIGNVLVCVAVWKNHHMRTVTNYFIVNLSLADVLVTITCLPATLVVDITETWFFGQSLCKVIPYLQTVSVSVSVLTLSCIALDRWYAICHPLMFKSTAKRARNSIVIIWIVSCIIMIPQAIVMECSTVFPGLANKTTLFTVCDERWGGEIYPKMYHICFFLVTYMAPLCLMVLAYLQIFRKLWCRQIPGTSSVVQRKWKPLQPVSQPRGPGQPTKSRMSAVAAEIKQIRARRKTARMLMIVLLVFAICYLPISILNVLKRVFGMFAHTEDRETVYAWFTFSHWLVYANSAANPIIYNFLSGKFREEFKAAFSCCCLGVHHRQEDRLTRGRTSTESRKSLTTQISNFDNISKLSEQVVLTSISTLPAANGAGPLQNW

OX-KO mice [3] = test: Wakefulness and sleep (EEG/EMG) after intracerebroventricular infusion in OX-KO mice; format: in vivo, mouse; conditions: ICV 160 μM at 5 μL/h, ZT0-6, vs vehicle (artificial cerebrospinal fluid)
Experimental: Wakefulness, non-REM sleep (NREM) and REM sleep are expressed as a percentage of the recording time. V: vehicle (artificial cerebrospinal fluid). OX-D: OX-DRAGON. TAT: TAT peptide. ZT: Zeitgeber time (i.e., time since lights were switched on). Black bars: intracerebroventricular infusion (5 μL/h from ZT0 to ZT6, with vehicle or peptides at 160 μM). * and †: P<0.05, Wilcoxon test with exact significance (Monte Carlo method) vs. vehicle (with correction for false-discovery rate) or vs. OX-DRAGON, respectively.
(§1) A biocompatible acrylic resin protection for was applied to the animal's head to protect the electrode and cannula connectors. After 1-2 weeks of post-operative recovery, the animals were connected via rotating electrical and fluid connectors respectively to thin electrical cables and to a catheter, itself connected to a precision pump for ICV infusion. The rotating connectors, cables and catheter were supported by a balanced arm to allow the animals full freedom of movement during the recordings, which were made with light: dark cycle of 12:12 hours. Wakefulness, non-REM sleep, and REM sleep were assessed based on EEG and EMG tracings with a technique previously published in detail (Bastianini et al., 2011).

OX-KO mice [4] = test: Cataplexy-like episodes after subcutaneous injection in OX-KO mice; format: in vivo, mouse; conditions: SC single injection at ZT0, 160 μM in 1 mL saline; for total duration of cataplexy-like episodes during the dark period: vs vehicle
Source text: D-CLS: total duration of cataplectic-like episodes during the dark period. V: vehicle (saline). OX-D: OX-DRAGON. TAT: TAT peptide. […] […] The dots indicate values in individual mice.
Such episodes, identified as direct transitions from wakefulness to REM sleep (Scammell et al., 2009), during the dark period are 100% specific for cataplexy in mouse models of NT1 (Fujiki et al., 2009). Correspondence between such events on polysomnographic tracings and abrupt behavioural transitions to a state of immobility was confirmed based on synchronized video tracings in a subset of mice (n=4) during treatment with vehicle and with OX-DRAGON.

OX-KO mice [5] = test: Wakefulness and sleep (EEG/EMG) after subcutaneous injection in OX-KO mice; format: in vivo, mouse; conditions: SC single injection at ZT0, 160 μM in 1 mL saline, vs vehicle; for time spent in REM sleep: light and dark period
Experimental: Wakefulness, non-REM sleep (NREM) and REM sleep are expressed as a percentage of the recording time. V: vehicle (saline). OX-D: OX-DRAGON. TAT: TAT peptide. ZT: Zeitgeber Time (i.e., time since lights were switched on). Each peptide was injected subcutaneously at the concentration of […] in 1 mL of vehicle at ZT0. *: P<0.05, Wilcoxon test with exact significance (Monte Carlo method) vs. vehicle with correction for false-discovery rate.
as §1
Experiments were performed as in step 3 above, except for the absence of the ICV cannula implant.

OR2 [6] = molecular target: T2, OR2; test: Intracellular Ca2+ response (Fluo-4 Direct Calcium Assay) in Neuro-2a cells expressing human OR2; format: cell-based; set-up: expressed in transfected cells; conditions: OX-DRAGON 8.5 μM vs OXA 14.8 μM; triplicate; normalized to maximal responses
Source text: (§2) Panel A: L, ladder DNA. Panel B: Data are reported as mean values and standard errors of the mean on triplicate measurements. The dots indicate the individual measures. […] The arrows indicate the time of the microinjection.
(§3) Selective expression of the OR1- or OR2-coding genes in the corresponding cell lines and the absence of expression of OR1 and OR2 in WT cells were confirmed by real-time PCR from RNA extracted from the individual DNAse-treated and back-transcribed cells (FIG. 3A). Responses in terms of intracellular [Ca^2+] were assessed in triplicate using Fluo-4 Direct Calcium Assay (Invitrogen) and a Tekan Spark microplate reader, normalizing the results obtained to the maximal responses.

OR2 [7] = molecular target: T2, OR2; test: cell-based
OR1 [8] = molecular target: T1, OR1; test: Concentration-response reporter assay kit (Cayman n. 600240/600250) on HEK-293T cells, OR1; format: cell-based; set-up: host or cells: HEK-293T
OR1 [9] = molecular target: T1, OR1; test: Intracellular Ca2+ response (Fluo-4 Direct Calcium Assay) in Neuro-2a cells expressing human OR1; format: cell-based; set-up: expressed in transfected cells; conditions: OX-DRAGON 8.5 μM vs OXA 14.8 μM; triplicate; normalized to maximal responses
Source text: as §2, §3

[10] = Solubility of the peptide; format: physicochemical
Experimental: Two batches of OX-DRAGON were synthesized by an external commercial entity (Genscript, (www.genscript.com), with purity ≥98.0% and net peptide content ≥68.0% (FIG. 2). The peptide is highly soluble […] in water, DPBS and DMSO.

[11] = tested on: control Neuro-2a cells that do not express such receptors (wild-type, WT); test: Intracellular Ca2+ response in control wild-type Neuro-2a cells without OR1/OR2; format: cell-based, mouse; conditions: Neuro-2a cells without OR1 and OR2
Experimental: as §3

WT Neuro-2a cells = test: Immunofluorescence (anti-OXA 16-33 amide) internalization in WT Neuro-2a cells; format: cell-based, mouse; conditions: 74 μM, 1 hour, confocal microscopy
Source text: The panels show immunofluorescence imaging (rabbit anti-OXA 16-33 amide primary antibody, 1:200, Phoenix peptides #H-003-36) in Neuro-2a cells without expression of OR1 and OR2. […] The presence of diffuse TRITC fluorescence at the cytoplasmic level was confirmed in confocal microscopy (panel A). […] Calibration bars: 50 μm.
Because crossing the BBB requires the ability to cross endothelial cell membranes, these experiments support the ability of OX-DRAGON to cross the BBB and reach brain tissue after systemic administration.

PDCCRQKTCSCRLYELLHGAGNHAAGILTL [4-33 truncated sequence of OXA]
EC50 on OR1 relative to the native OXA protein (OR1 [1]): approximately 1/7 | EC50 on OR2 relative to the native OXA protein (OR2 [2]): approximately 1/7

YGRKKRRQRRR [TAT, cell penetrating TAT peptide of type-1 human immunodeficiency virus (HIV), reference compound]
REM sleep time (OX-KO mice [3]): significant reduction in REM sleep time during the dark period | non-REM sleep time (OX-KO mice [3]): did not evoke significant effects | wakefulness time (OX-KO mice [3]): did not evoke significant effects | total duration of cataplexy-like episodes during the dark period (OX-KO mice [4]): not replicated | time spent awake (OX-KO mice [5]): did not result in significant effects | time spent in non-REM sleep (OX-KO mice [5]): did not result in significant effects | time spent in REM sleep (OX-KO mice [5]): did not result in significant effects

YGRKKRRQRRRPDCCRQKTCSCRLYELLHGAGNHAAGILTL-NH2 (disulfide 14-20, 15-22) [OX-DRAGON]
intracellular [Ca2+] response of OR2-expressing cells (OR2 [6]): close to the maximal ones evoked by OXA | EC50 (OR2 [7]): 10.5 nM | EC50 (OR1 [8]; HEK-293T cells, reporter assay, Hill equation fit): 67.7 nM | OR1/OR2 EC50 ratio (OR1 [8]; receptor selectivity, EC50 OR1 / EC50 OR2): 6.47 and 6.5 | REM sleep time (OX-KO mice [3]): marked reduction in REM sleep time | non-REM sleep time (OX-KO mice [3]): decreased non-REM sleep time | wakefulness time (OX-KO mice [3]): increased wakefulness time | intracellular [Ca2+] response of OR1-expressing cells (OR1 [9]): close to the maximal ones evoked by OXA | duration of individual cataplexy-like episodes (OX-KO mice [4]): no significant changes | total duration of cataplexy-like episodes during the dark period (OX-KO mice [4]): significantly decrease | number of cataplexy-like episodes (OX-KO mice [4]; P=0.034 one-tailed Wilcoxon): reduction in the number of cataplexy-like episodes | solubility ([10]; in DMSO): 10000 µg/mL | solubility ([10]; in DPBS): 10000 µg/mL | solubility ([10]; in water): 10000 µg/mL | time spent awake (OX-KO mice [5]): without exerting significant effects | time spent in non-REM sleep (OX-KO mice [5]): without exerting significant effects | time spent in REM sleep (OX-KO mice [5]): significantly decrease | intracellular [Ca2+] response of WT cells [11]: absence of significant effects | internalization into cells (intracellular/cytoplasmic fluorescence signal) (WT Neuro-2a cells): cytoplasmic signal of diffused fluorescence; also recorded: presence of TRITC fluorescence signal at the intracellular level
